From US8987257B2 (Novartis AG, priority 2011, dated 2015)

How the values were obtained:
PI3Kα = PI3Kα (Homo sapiens (Human), UniProt P42336); experiment: Test 1: PI3 Kinase Assay (PI3K KinaseGlo assay); type: biochemical; conditions: 1 μM ATP
Experimental: L-a-phosphatidylinositol (PI), provided as 10 mg/ml solution in methanol, was transferred into a glass tube and dried under nitrogen beam. It was then resuspended in 3% OctylGlucoside (OG) by vortexing and stored at 4° C. The KinaseGlo Luminescent Kinase Assay (Promega, Madison/WI, USA) is a homogeneous HTS method of measuring kinase activity by quantifying the amount of ATP remaining in solution following a kinase reaction.
Kinase reactions were started by addition of 5 μl of ATP-mix containing in a final volume 10 μL 10 mM TRIS-HCl pH 7.5, 3 mM MgCl2, 50 mM NaCl, 0.05% CHAPS, 1 mM DTT and 1 μM ATP, and occurred at room temperature.
The PI3Kα construct is a fusion of p85α iSH2 domain and the respective p110 isoform. The p85α fragment and p110 isoform gene were generated by PCR from first strand cDNA generated by RT-PCR from commercial RNA from placenta, testis and brain as described below.
The p85 fragment was derived from plasmid p1661-2 digested with Nhe/Spe. The p110α fragment derived from its clone was verified by sequencing and used in LR410 as a SpeI/HindIII fragment. For the generation of the baculovirus expression vector LR410 the gateway LR reaction to transfer the insert into the Gateway adapted pBlueBac4.5 (Invitrogen) vector was used. The cloning vector pBlueBac4.5 (Invitrogen) was digested with Nhe/HindIII. […] The two reverse primers overlap and incorporate a 12×Gly linker and the N-terminal sequence of the p110α gene to the SpeI site. The PCR fragment was cloned into pCR2.1 TOPO (Invitrogen). Of the resulting clones, p1661-2 was determined to be correct by sequencing. This plasmid was digested with Nhe and SpeI and the resulting fragment was gel-isolated and purified for sub-cloning.
PI3Kα was purified in two chromatographic steps: immobilized metal affinity chromatography (IMAC) on a Ni sepharose resin (GE Healthcare) and gel filtration utilizing a Superdex 200 26/60 column (GE Healthcare). All buffers were chilled to 4° C. and lysis was performed chilled on ice. Column fractionation was performed at room temperature.

[1] = system: constitutively active mTOR; experiment: Test 3: TSC Assay (high content imaging of phospho-S6 (240/244) in TSC1−/− MEFs); type: cell-based; conditions: Mus musculus, pS6 240/244 staining, 2 hrs compound treatment
Experimental: This assay generates IC50 values for compounds that inhibit mTOR.
Quantification of pS6 Staining Using High-Content Imaging and Analysis
Day 0: Cell plating. Subconfluent TSC1−/− MEFs are harvested by trypsinization, resuspended in growth medium, and counted. […] The plates are briefly spun down and placed at 37° C. and 5% CO2. • 2. Day 1: Cell plates are washed into a PBS starve solution (contains glucose, sodium bicarbonate, HEPES and phenol red) using a 384-well plate washer. The wash protocol aspirates the volume down to 30 μL/well before dispensing 60 μL/well of the PBS starve solution. Aspiration and dispensing steps are repeated 8 times and a final volume of 30 μL/well is left. The cell plates are placed at 37° C. and 5% CO2 for 2 hrs. • Compound treatment. Compound dose responses are prepared in DMSO. The dose responses are then diluted 1:50 in medium. 10 ul of the diluted compound is added to 30 ul of cells, yielding a final 1:200 dilution of the original compound and final of 0.5% DMSO. Compound-treatments are performed in triplicates. The plates are placed at 37° C. and 5% CO2 for 2 hrs. Cells are then fixed by adding 10 μL/well 5× concentrated Mirsky's fixative. […] The cell plates are briefly spun down and incubated for 1 h at room temperature. Cells are then washed using a 384-well plate washer using a protocol which aspirates the volume down to 30 μL/well before dispensing 60 μL/well 1×TBS. Aspiration and dispensing steps are repeated 8 times and then an additional aspiration step leaves a final volume of 10 μL/well. Block buffer (1×TBS+0.1% Triton X-100+0.1% BSA) is then added at 25 μL/well and the plates are incubated at room temperature for 30 min. The cell plates are then aspirated down to 10 μL/well. […] Plates are incubated overnight at 4° C. • 3. […] The bottom of the plate is cleaned with 70% ethanol and then imaged using the InCell 1000 automated epifluorescence microscope. […] Cy5 images are acquired using an excitation of 620 nm (Chroma 620—60× filter), an emission of 700 nm (Chroma HQ700—75M filter) and an exposure time of 200 ms. A double band pass mirror is used for all images. • 4. Image analysis: The InCell Analysis software is used to analyze the images using the Dual Object algorithm. […] The Cy5 fluorescence intensity inside the collar is measured (cell intensity) and results are reported on an “Average per cell” basis. • 5. IC50 calculation: IC50s are calculated by plotting the cell intensity values on the y-axis with dose response values on the x-axis. IC50 values represent compound potency against mTOR.

H4 mCherry-GFP-LC3 cells = experiment: Test 4: Autophagy Assay (mCherry-GFP-LC3 reporter, high-content imaging); type: cell-based; conditions: Homo sapiens, 16-18 h
From the text: Autophagy is a catabolic pathway that degrades bulk cytosol in lysosomal compartments enabling amino acids and fatty acids to be recycled. […] To quantify autophagy induction by mTOR inhibitors, we use a mCherry-GFP-LC3 reporter which is amenable to retroviral delivery into mammalian cells, stable expression and analysis by fluorescence microscopy.
Described hereinafter is an imaging protocol and image recognition algorithm to visualize and measure changes in the autophagic pathway.
Quantification of Autophagy Using High-Content Imaging and Analysis
• 1. Day 0: Cell plating. Subconfluent H4 mCherry-GFP-LC3 cells are harvested by trypsinization, resuspended in growth medium, and counted (H4 cells: Human neuroglioma cell line (ATCC)). A cell suspension of 66′000 cells/mL is prepared and 30 μL are added into the wells of a 384-well plate using an electronic multichannel pipette. […] The cell plates are briefly spun down and placed at 37° C. and 5% CO2. • 2. Day 1: Compound treatment. Compound dose responses are prepared in DMSO. The dose responses are then diluted 1:50 in medium. 10 ul of the diluted compound is added to 30 ul of cells, yielding a final 1:200 dilution of the original compound and final of 0.5% DMSO. Compound-treatments are performed in triplicates. The 384-well plates are placed at 37° C. and 5% CO2. Compound treatment is performed for 16-18 h (see Note 1). • 3. Day 2: Cell fixation. Cells are fixed by adding 10 μL/well 5× concentrated Mirsky's fixative supplemented with 25 μg/mL Hoechst33342. […] The 384-well plate is briefly spun down and incubated for 1 h at room temperature. Cells are then washed using a 384-well plate washer using a protocol which aspirates the volume down to 10 μL/well before dispensing 100 μL/well 1×TBS. Aspiration and dispensing steps are repeated 4 times and a final volume of 100 μL/well is left. The plate is sealed using an adhesive PCR foil. • 4. Imaging. The bottom of the plate is cleaned with 70% ethanol and then imaged using the InCell 1000 automated epifluorescence microscope. 20× magnification is used and 4 different areas (fields) are imaged per well, this typically captures a total of around 400 cells per well. Hoechst33342 images are acquired using an excitation of 360 nm (D360—40× filter), an emission of 460 nm (HQ460—40M filter) and an exposure time of 150 ms. GFP images are acquired using an excitation of 475 nm (S47520× filter), an emission of 535 nm (HQ535—50M filter) and an exposure time of 1 s. mCherry images are acquired using an excitation of 535 nm (HQ535—50× filter), an emission of 620 nm (HQ620—60M filter) and an exposure time of 1 s. A quadruple band pass mirror is used for all images. • 5. Image analysis. The InCell Analysis software is used to analyze the images using the Multi Target Analysis algorithm. First, nuclei are detected in the Hoechst33342 image using top-hat segmentation and a minimal nuclear area of 50 μm^2. Cells are defined using a collar of 10 μm around the nuclei. Second, puncta (organelles) are identified in the mCherry image inside the cells using multi-top-hat segmentation. Third, the mask of the mCherry puncta is transferred onto the GFP image. Fourth, the GFP fluorescence intensity inside the mCherry puncta mask is measured (reference intensity). • 6. The ‘organelles’ parameter reflects mCherry-positive puncta of the mCherry-GFP-LC3 reporter and is used to calculate ‘LC3 puncta/cell’. For this purpose, the number of organelles is calculated per cell and averaged over all the cells in a given well (average per cell basis). mCherry-positive LC3 puncta numbers (y-axis) are plotted against the compound dose response values (x-axis) and EC50 values are calculated for each compound. EC50 values represent compound potency in terms of autophagy activation (e.g. increase in mCherry-positive LC3 puncta count). Notes • 1. Autophagy-modulation and redistribution of mCherry-GFP-LC3 can be already observed after a compound treatment time of 3-4 h. […]

FRAP1/mTOR = FRAP1/mTOR (Homo sapiens (Human), UniProt P42345); experiment: Test 2: mTOR Biochemical Assay (FRAP1/mTOR TR-FRET tracer assay); type: binding; conditions: mTOR Kinase Tracer 314
Experimental: IC50s for mTOR interacting compounds were assessed using the FRAP1/mTOR TR-FRET tracer assay (Invitrogen by Life Technologies). […] Compounds were serially diluted in DMSO (12-point, 4× dilution factor) and 1 μL of diluted compound was then added to each well and mixed by pipetting using a Biomek FX (Beckman Coulter).

[2] = Table 4 (unit inferred), mCherry-positive LC3 puncta/cell
[3] = Table 1, mCherry-positive LC3 puncta/cell

FRAP1/mTOR, sequence (P42345 1360-2549): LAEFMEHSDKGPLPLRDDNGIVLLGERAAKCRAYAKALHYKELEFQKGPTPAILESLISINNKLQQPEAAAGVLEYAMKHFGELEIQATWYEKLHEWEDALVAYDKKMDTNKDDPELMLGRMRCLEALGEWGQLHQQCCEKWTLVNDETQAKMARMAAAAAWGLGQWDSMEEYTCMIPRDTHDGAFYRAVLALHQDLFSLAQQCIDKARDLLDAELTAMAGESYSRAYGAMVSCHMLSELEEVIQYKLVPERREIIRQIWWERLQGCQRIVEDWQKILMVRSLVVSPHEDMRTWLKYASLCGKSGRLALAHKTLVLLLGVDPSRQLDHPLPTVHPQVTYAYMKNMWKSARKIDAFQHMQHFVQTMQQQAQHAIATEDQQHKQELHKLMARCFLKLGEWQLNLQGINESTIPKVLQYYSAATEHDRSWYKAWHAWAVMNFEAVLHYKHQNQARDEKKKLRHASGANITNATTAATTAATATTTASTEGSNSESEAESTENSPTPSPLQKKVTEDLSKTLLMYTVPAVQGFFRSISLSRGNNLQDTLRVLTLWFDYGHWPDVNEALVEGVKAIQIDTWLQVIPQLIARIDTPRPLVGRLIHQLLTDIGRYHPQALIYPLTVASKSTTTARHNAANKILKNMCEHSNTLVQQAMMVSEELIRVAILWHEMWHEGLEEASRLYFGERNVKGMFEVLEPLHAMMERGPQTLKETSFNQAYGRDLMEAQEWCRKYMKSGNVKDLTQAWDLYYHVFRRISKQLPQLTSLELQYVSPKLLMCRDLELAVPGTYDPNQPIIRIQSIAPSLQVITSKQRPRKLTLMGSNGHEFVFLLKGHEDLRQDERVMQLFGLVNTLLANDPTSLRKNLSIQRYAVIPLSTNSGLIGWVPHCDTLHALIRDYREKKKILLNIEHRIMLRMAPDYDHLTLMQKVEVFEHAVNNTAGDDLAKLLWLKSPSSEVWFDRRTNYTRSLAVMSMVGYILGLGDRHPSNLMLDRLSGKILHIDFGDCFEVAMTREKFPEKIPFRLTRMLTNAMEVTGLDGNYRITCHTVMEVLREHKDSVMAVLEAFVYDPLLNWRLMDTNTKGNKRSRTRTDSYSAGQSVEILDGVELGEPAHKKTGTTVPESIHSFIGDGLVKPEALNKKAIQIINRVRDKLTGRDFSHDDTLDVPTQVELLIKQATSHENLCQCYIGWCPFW
PI3Kα, sequence (P42336 other isoform, or with tags, fused parts or gaps): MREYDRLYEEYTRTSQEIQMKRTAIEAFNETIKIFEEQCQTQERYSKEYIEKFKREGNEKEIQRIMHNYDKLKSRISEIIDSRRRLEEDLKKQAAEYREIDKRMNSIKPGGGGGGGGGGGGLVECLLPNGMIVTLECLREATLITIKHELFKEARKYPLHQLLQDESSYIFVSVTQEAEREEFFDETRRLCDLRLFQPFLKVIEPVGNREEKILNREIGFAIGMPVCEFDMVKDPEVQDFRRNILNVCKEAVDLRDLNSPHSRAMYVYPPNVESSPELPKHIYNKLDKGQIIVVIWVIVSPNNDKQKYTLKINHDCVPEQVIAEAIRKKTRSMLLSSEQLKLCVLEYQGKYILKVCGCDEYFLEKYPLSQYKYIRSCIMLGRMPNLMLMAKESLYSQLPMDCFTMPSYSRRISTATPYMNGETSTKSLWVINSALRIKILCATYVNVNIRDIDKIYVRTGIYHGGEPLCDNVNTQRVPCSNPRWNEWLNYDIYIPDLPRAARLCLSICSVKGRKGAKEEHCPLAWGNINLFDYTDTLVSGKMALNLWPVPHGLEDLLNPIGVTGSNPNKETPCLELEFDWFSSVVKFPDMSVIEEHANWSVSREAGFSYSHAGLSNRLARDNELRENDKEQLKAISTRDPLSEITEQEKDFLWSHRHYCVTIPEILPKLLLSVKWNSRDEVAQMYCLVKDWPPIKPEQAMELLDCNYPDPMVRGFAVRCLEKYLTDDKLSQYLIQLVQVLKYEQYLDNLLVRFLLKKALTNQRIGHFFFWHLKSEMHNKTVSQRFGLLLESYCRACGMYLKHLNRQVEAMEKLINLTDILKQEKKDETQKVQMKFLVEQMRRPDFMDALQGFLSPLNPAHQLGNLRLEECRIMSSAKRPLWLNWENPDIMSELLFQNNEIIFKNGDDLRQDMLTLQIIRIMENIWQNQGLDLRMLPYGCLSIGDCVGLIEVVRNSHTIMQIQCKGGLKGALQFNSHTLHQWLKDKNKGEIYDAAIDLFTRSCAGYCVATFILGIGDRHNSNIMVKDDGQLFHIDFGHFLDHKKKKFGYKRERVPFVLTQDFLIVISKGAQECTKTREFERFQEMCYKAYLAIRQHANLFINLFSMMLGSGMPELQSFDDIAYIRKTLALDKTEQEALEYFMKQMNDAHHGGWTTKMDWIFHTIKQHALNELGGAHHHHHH

Row | SMILES | IC50 (PI3Kα) [µM] | IC50 [1] [µM] | EC50 (H4 mCherry-GFP-LC3 cells; [2]) [µM] | IC50 (FRAP1/mTOR) [µM] | EC50 (H4 mCherry-GFP-LC3 cells; [3]) [µM]
1 | c1cc(-c2nc3c(N4C[C@@H]5C[C@H]4CO5)nc(N4CCOCC4)nc3[nH]2)c2cc[nH]c2c1 [Example 50, 8-(1H-Indol-4-yl)-2-morpholin-4-yl-6-(1S,4S)-2-oxa-5-aza-bicyclo[2.2.1]hept-5-yl-9H-purine] | 4.22 | 0.92 | 8.67 | 1.2 | –
2 | CC1(C)COCCN1c1nc(N2CCOCC2)nc2[nH]c(-c3ccc4cc[nH]c4c3)nc12 [Example 39, 6-(3,3-Dimethyl-morpholin-4-yl)-8-(1H-indol-6-yl)-2-morpholin-4-yl-9H-purine] | 2.53 | 0.146 | 2.32 | 0.16 | –
3 | C[C@@H]1COCCN1c1nc(N2CCOC[C@@H]2C)nc2[nH]c(-c3cccc4[nH]ccc34)cc12 [Example 55, 6-(1H-Indol-4-yl)-4-((R)-3-methyl-morpholin-4-yl)-2-((S)-3-methyl-morpholin-4-yl)-7H-pyrrolo[2,3-d]pyrimidine] | 1.44 | 0.071 | 1 | 2.67 | –
4 | C[C@@H]1COCCN1c1nc(N2CCOCC2)nc2[nH]c(-c3cccc4[nH]ccc34)nc12 [Example 20, 8-(1H-Indol-4-yl)-6-((R)-3-methyl-morpholin-4-yl)-2-morpholin-4-yl-9H-purine] | 6.05 | 0.09 | – | 0.006 | 0.452
5 | c1cc2ccc(-c3nc4c(N5C6CCC5COC6)nc(N5CCOCC5)nc4[nH]3)cc2[nH]1 [Example 53, 8-(1H-Indol-6-yl)-2-morpholin-4-yl-6-(3-oxa-8-aza-bicyclo[3.2.1]oct-8-yl)-9H-purine] | > 9.1 | 0.528 | 0.782 | 0.19 | –
6 | Cc1cc2c(-c3nc4c(N5CCOCC5)nc(N5CCOCC5)nc4[nH]3)cccc2[nH]1 [Example 31, 8-(2-Methyl-1H-indol-4-yl)-2,6-di-morpholin-4-yl-9H-purine] | 0.59 | 0.315 | – | – | –
7 | c1cc2ccc(-c3nc4c(N5C[C@@H]6C[C@H]5CO6)nc(N5CCOCC5)nc4[nH]3)cc2[nH]1 [Example 48, 8-(1H-Indol-6-yl)-2-morpholin-4-yl-6-(1S,4S)-2-oxa-5-aza-bicyclo[2.2.1]hept-5-yl-9H-purine] | 4.3 | 1.46 | 6.41 | 1.01 | –
8 | C[C@H]1COCCN1c1nc(N2CCC(F)(F)CC2)nc2[nH]c(-c3cccc4[nH]ccc34)nc12 [Example 5, 2-(4,4-Difluoro-piperidin-1-yl)-8-(1H-indol-4-yl)-6-((S)-3-methyl-morpholin-4-yl)-9H-purine] | > 9.1 | 0.551 | – | 0.15 | 2.59
9 | C[C@H]1COCCN1c1nc(N2CCOC[C@@H]2C)c2nc(-c3ccnc4[nH]ccc34)[nH]c2n1 [Example 3, 2,6-Bis-((S)-3-methyl-morpholin-4-yl)-8-(1H-pyrrolo[2,3-b]pyridin-4-yl)-9H-purine] | 6.53 | 2.32 | – | 0.51 | > 2
10 | C[C@@H]1CN(c2nc(N3CCOCC3)c3nc(-c4cccc(O)c4)[nH]c3n2)C[C@H](C)O1 [Example 1, 3-[2-((2S,6R)-2,6-Dimethyl-morpholin-4-yl)-6-morpholin-4-yl-9H-purin-8-yl]-phenol] | 0.02 | 0.118 | – | – | –
11 | C[C@@H]1COCCN1c1nc(N2CCOCC2)c2nc(-c3cccc4[nH]ccc34)[nH]c2n1 [Example 47, 8-(1H-Indol-4-yl)-2-((R)-3-methyl-morpholin-4-yl)-6-morpholin-4-yl-9H-purine] | 0.06 | 0.111 | 0.461 | 0.06 | –
12 | Oc1ccccc1-c1nc2c(N3CCOCC3)nc(N3CCOCC3)nc2[nH]1 [Example 38, 2-(2,6-Di-morpholin-4-yl-9H-purin-8-yl)-phenol] | 0.48 | > 50 | – | – | –
13 | COc1ccc(-c2nc3c(N4CCOC[C@@H]4C)nc(N4CCOC[C@@H]4C)nc3[nH]2)cc1CO [Example 7, {5-[2,6-Bis-((S)-3-methyl-morpholin-4-yl)-9H-purin-8-yl]-2-methoxy-phenyl}-methanol] | 2.54 | 0.455 | – | – | –
14 | C[C@@H]1COCCN1c1nc(N2CCOC[C@H]2C)c2nc(-c3cc(CO)ccc3F)[nH]c2n1 [Example 19, {3-[2,6-Bis-((R)-3-methyl-morpholin-4-yl)-9H-purin-8-yl]-4-fluoro-phenyl}-methanol] | 0.17 | 0.3 | – | 0.134 | 2
15 | CC(=O)Nc1cccc(-c2nc3c(N4CCOCC4)nc(N4CCOCC4)nc3[nH]2)c1 [Example 30, N-[3-(2,6-Di-morpholin-4-yl-9H-purin-8-yl)-phenyl]-acetamide] | 3.01 | 1.52 | – | 1.45 | > 2
16 | NCc1cccc(-c2nc3c(N4CCOCC4)nc(N4CCOCC4)nc3[nH]2)c1 [Example 11, 3-(2,6-Di-morpholin-4-yl-9H-purin-8-yl)-benzylamine] | 8.14 | 6.02 | – | 2.42 | > 2
17 | Nc1cccc(-c2nc3c(N4CCOCC4)nc(N4CCOCC4)nc3[nH]2)c1 [Example 29, 3-(2,6-Di-morpholin-4-yl-9H-purin-8-yl)-phenylamine] | 3.86 | 2.08 | – | 1.21 | > 5
18 | Oc1cccc(-c2nc3c(N4CCOCC4)nc(N4CCOCC4)nc3[nH]2)c1 [Example 36, 3-(2,6-Di-morpholin-4-yl-9H-purin-8-yl)-phenol] | 0.02 | 0.073 | – | – | –
19 | C[C@H]1COCCN1c1nc(N2CCOC[C@@H]2C)c2nc(-c3ccc4[nH]c(=O)[nH]c4c3)[nH]c2n1 [Example 6, 5-[2,6-Bis-((S)-3-methyl-morpholin-4-yl)-9H-purin-8-yl]-1,3-dihydro-benzoimidazol-2-one] | > 9.1 | 1.45 | – | 0.03 | –
20 | C[C@@H]1CN(c2nc(N3CCOCC3)c3nc(-c4cccc(N)c4)[nH]c3n2)C[C@H](C)O1 [Example 32, 3-[2-((2S,6R)-2,6-Dimethyl-morpholin-4-yl)-6-morpholin-4-yl-9H-purin-8-yl]-phenylamine] | 2.52 | 1.03 | – | 1.04 | –
21 | OCc1cccc(-c2nc3c(N4CCOCC4)nc(N4CCOCC4)nc3[nH]2)c1 [Example 37, [3-(2,6-Di-morpholin-4-yl-9H-purin-8-yl)-phenyl]-methanol] | 0.01 | 0.62 | – | – | –
22 | C[C@@H]1CN(c2nc(N3CCOCC3)c3nc(-c4ccccc4CO)[nH]c3n2)C[C@H](C)O1 [Example 34, {2-[2-((2S,6R)-2,6-Dimethyl-morpholin-4-yl)-6-morpholin-4-yl-9H-purin-8-yl]-phenyl}-methanol] | > 9.1 | 8 | – | – | –
23 | C[C@H]1COCCN1c1nc(N2CCOCC2)nc2[nH]c(-c3ccc4cc[nH]c4c3)nc12 [Example 24, 8-(1H-Indol-6-yl)-6-((S)-3-methyl-morpholin-4-yl)-2-morpholin-4-yl-9H-purine] | 8.54 | 0.632 | – | 0.085 | –
24 | OCc1ccccc1-c1nc2c(N3CCOCC3)nc(N3CCOCC3)nc2[nH]1 [Example 35, [2-(2,6-Di-morpholin-4-yl-9H-purin-8-yl)-phenyl]-methanol] | 5.87 | 4.01 | – | – | –
